Results on five compounds are retold here after publication PMC7115430 (European Journal of Medicinal Chemistry, 2014).

Structures are written as SMILES. Read-outs that look alike come from different tables or passages of the source.

Data set [1] can be described thus: in vitro. To be noted: dog.
Data set [2] concerns Influenza B. Briefly: microbe, parasite or virus in culture. In kind it is cell-based. Conditions: MDCK.
The subject of data set [3] is Reovirus-1. Briefly: organism not typed. In kind it is cell-based. Conditions: Vero, read-out: EC50 Reovirus-1.
The subject of data set [4] is Punta toro virus. Nature of the data set: microbe, parasite or virus in culture. Format: cell-based. Conditions: Vero, read-out: EC50 Punta toro virus.
In data set [5] the test system is Sindbis virus. Nature of the data set: microbe, parasite or virus in culture. Format: cell-based. Conditions: Vero, read-out: EC50 Sindbis virus.
The test system of data set [6] is Vero cells. To be noted: microscopically detectable alteration of normal cell morphology.
In data set [7] the test system is Para-influenza-3 virus. Briefly: organism not typed. In kind it is cell-based. Conditions: Vero, read-out: EC50 Para-influenza-3 virus.
[8] abbreviates: read-out: Antiviral EC50 Influenza B MTS.
Where [9] appears, read: read-out: Antiviral EC50 Influenza B Visual CPE score.

For `NC12CC3CC(CC(C3)C1)C2` [Amantadine], the CC50 in data set [1] was above 500 µM.

One may read the EC50 as the concentration that produces a half-maximal response. Turning to `CCC(CC)O[C@@H]1C=C(C(=O)O)C[C@H](N)[C@H]1NC(C)=O` [Oseltamivir carboxylate], the EC50 in data set [2] (setting [8]) is 6.2 ± 0.33 µM; in data set [2] (setting [9]) it was 4 ± 0.11 µM. Moreover, the CC50 in data set [1] was above 100 µM.

Regarding `Nc1ncnc2c1ncn2C[C@H](O)CO` [(S)-DHPA], the EC50 in data set [3], in data set [4], in data set [5] and in data set [7] was above 250 µM throughout. This compound also came in with a Minimum cytotoxic concentration in data set [6] above 250 µM.

Regarding `NC(=O)c1ncn([C@@H]2O[C@H](CO)[C@@H](O)[C@H]2O)n1` [Ribavirin], the EC50 in data set [2] (setting [8]) was 9.6 ± 0.98 µM; in data set [2] (setting [9]) it was 9 ± 0.56 µM; in data set [3], above 250 µM; in data set [5], above 250 µM; in data set [7], 112 µM. For the same compound, the Minimum cytotoxic concentration in data set [6] was above 250 µM.

For the compound `CC(N)C12CC3CC(CC(C3)C1)C2` (stereo not shown) [Rimantadine], the CC50 in data set [1] was above 500 µM.
